Data on two compounds can be found in article PMC5884906, “Single Administration of HBK-15—a Triple 5-HT1A, 5-HT7, and 5-HT3 Receptor Antagonist—Reverses Depressive-Like Behaviors in Mouse Model of Depression Induced by Corticosterone” (Molecular Neurobiology, 2017).

The structures appear in SMILES notation. pIC50, pKi: −log10 of the molar value.

The subject of one experiment is mice. To be noted: scopolamine-induced deficits; cited from earlier work.
The subject of experiment [1] is BDNF level in the hippocampus. Kind of experiment: BDNF level in the hippocampus (ELISA), single administration. The format is in vivo, mice. Here is the method:
Mice were injected with corticosterone (s.c., 20 mg/kg) at random times during the light phase for consecutive 21 days (Fig. 1c). The dose and route of administration of corticosterone were based on studies performed by Zhao and colleagues. After the end of the procedure, next day 30 min before the test, corticosterone-treated mice were given (i.p.) saline, HBK-15 (1.25 mg/kg), fluoxetine (10 mg/kg), or ketamine (1 mg/kg) (Fig. 1c). Control mice received (i.p.) saline. The experimental groups consisted of eight randomly selected animals. We chose the dose of HBK-15 that was active in the chronic experiments (i.e., 1.25 mg/kg). The dose of ketamine was based on the studies performed by Pazini and colleagues. Animals were tested in the forced swim test and spontaneous locomotor activity test. After behavioral testing, mice were scarified and their hippocampi collected for biochemical analysis.
After the behavioral assessments, mice were sacrificed, and their brains were rapidly removed and chilled in an ice-cold saline solution. The hippocampi were dissected on a cold plate, frozen, and stored at −80 °C until assay. On the day of experiments, tissues were thawed on ice and homogenized (1:9 w/v) in phosphate-buffered saline (4 °C) and protease inhibitor cocktail was added. The 10% homogenates were prepared and homogenized for 30 s with TissueRuptor homogenizer. The homogenized tissues were centrifuged (2500×g at 4 °C for 20 min), and the supernatants were collected for further assays.
Protein concentrations of BDNF and NGF in homogenates from hippocampi were determined using the enzyme-linked immunosorbent assay (ELISA) kits (BDNF: DZE201020014, SunRed Biotechnology Company; NGF: MBS825100, MyBioSource) according to the manufacturer’s instructions. […] The samples were analyzed in duplicates, and the mean concentrations were calculated. […] The intensity of the color was read at 450 nm. Absorbance was measured in a multifunction plate reader (POLARstar Omega, BMG Labtech, Germany). […]

Experiment [2] deals with dopaminergic D2 receptors. Also on record: method as in PMID 26554929. To be noted: read-out: affinity for dopaminergic D2 receptors, Ki; cited from earlier work.
For experiment [3], the target named is serotonergic 5-HT2A receptors. More on the design: method as in PMID 26554929. As to conditions: read-out: affinity for serotonergic 5-HT2A receptors, Ki; cited from earlier work.
In another experiment the target is D2 receptors. More on the design: method as in unpublished results. To be noted: not measured here; ref unpublished results; read-out: D2 receptor antagonism IC50; cited from earlier work.
On the set-up of experiment [4]: method as in unpublished results. To be noted: ref unpublished results; cited from earlier work.
A further experiment addresses 5-HT2A receptors. Also on record: method as in unpublished results. To be noted: not measured here; ref unpublished results; read-out: 5-HT2A receptor antagonism IC50; cited from earlier work.

By pKi is commonly meant −log10 of the Ki, conventionally taken in molar units. For orientation: pIC50 means the IC50 on a negative log10 scale, so that one unit is a factor of ten. Regarding `COc1ccccc1N1CCN(CCOCCOc2c(C)cccc2Cl)CC1.Cl` [HBK-15, 1-[(2-chloro-6-methylphenoxy)ethoxyethyl]-4-(2-methoxyphenyl)piperazine hydrochloride], the effect on memory result in the experiment with mice was “showed memory-enhancing properties”. In experiment [1] (single 1.25 mg/kg i.p.), the “effect on corticosterone-induced decrease in BDNF level in the hippocampus” value is reported as “reversed the decrease in BDNF level”. The pKi in experiment [2] was 7.27; in experiment [3], 6.96. In addition, the pIC50 on D2 receptors was 7.17; at 5-HT2A receptors it was 5.35. Also, the “antipsychotic-like or cataleptogenic properties” value in experiment [4] was “did not show antipsychotic-like or cataleptogenic properties”.

With `C[C@]12C[C@H](O)[C@H]3[C@@H](CCC4=CC(=O)CC[C@@]43C)[C@@H]1CC[C@@H]2C(=O)CO` [corticosterone], in experiment [1] (acute experiment, corticosterone 20 mg/kg s.c. 21 days + saline), the “decrease in BDNF level in the hippocampus vs control” value stood at 47.0%.
